The text below walks through data of patent publication US11345659B2, “Pipecolic esters for inhibition of the proteasome” (THE BOARD OF REGENTS OF THE UNIVERSY OF TEXAS SYSTEM, priority 2018, dated 2022).

Structures are written as SMILES. Entries after “also recorded” stand apart in the source; their conditions may differ.

For one test, the target named is T1, FKBP12 (Homo sapiens, UniProt P62942).
T1 construct: endogenous in cells; host or cells: RPMI 8226 (ATCC)
Nature of the test: Suppression of rapamycin inhibition of S6 phosphorylation by competing for FKBP12. It is filed as cell-based. As to conditions: RPMI 8226, 24 hours; FK506 10 μM, compound 3 and B1 0.2 μM, with rapamycin. The protocol: (§1) Human multiple myeloma RPMI 8226 cells were purchased from American Type Culture Collection (ATCC; Manassas, Va.) and cultured according to ATCC specifications. […] The content of live cells was determined by excluding the Trypan Blue-stained cells. The cells were counted with TC20 Automated Cell Counter (Bio-Rad Laboratories, Hercules, Calif.) and EC50 was calculated with Origin Pro 2017 (OriginLab Corporation, Northampton, Mass.). When indicated, the cells were harvested, washed twice in PBS, resuspended in dilution buffer and stored in −80° C. To prepare crude lysates the thawed preparations were vortexed with glass beads and centrifuged for 5 min 5,000×g (4° C.). The supernate was centrifuged for 20 min 14,000×g. The resulting supernate was used as “crude lysate.” SDS-PAGE was carried in 12% acrylamide, Tris-glycine gels from Invitrogen. Chameleon Duo (Li-Cor) and Rainbow RPN800E (GE Healthcare) molecular weight standards were separated on each gel alongside lysates. The proteins were transferred to nitrocellulose membrane in a semi-dry system. The membranes were probed with specific primary antibodies from Life Technologies (S6, PS6) and Li-Cor (COX IV), and then with secondary antibodies from Li-Cor. In each experiment visualization of S6, PS6 and COX IV was performed on the same membrane with Odyssey Infrared Imaging System (Li-Cor). […]

The next test has as its target T2, mTOR (Homo sapiens, UniProt P42345+P62942).
T2 construct: endogenous in cells; host or cells: RPMI 8226 (ATCC)
The test can be described thus: Western blot of S6 phosphorylation in RPMI 8226 cells. It is filed as cell-based. To be noted: RPMI 8226, 24 hours; rapamycin 2 nM, compound 3 and B1 0.2 μM. The protocol:
as §1
A general note: In western blotting, separated proteins are transferred to a membrane and probed.

Another test has as its target T3, 26 S proteasome (Homo sapiens, UniProt P25787+P25789).
T3 construct: purified from erythrocytes; purchased Enzo Life Sciences, Inc. (Farmingdale, N.Y.); host or cells: human erythrocytes
The test can be described thus: 26 S proteasome challenged with mixture of three substrates (surrogate proteinase assay). To be noted: mixture of ChT-L, T-L and Casp-L substrates, 33.3 μM each; read-out: IC50, 26 S proteasome with substrates for all three peptidases. It is filed as biochemical. The protocol:
(§2) Human housekeeping 20 S and 26 S and complexes purified from erythrocytes were purchased from Enzo Life Sciences, Inc. (Farmingdale, N.Y.). The 1 mg/ml stock 20 S proteasome was diluted to 0.2 mg/ml working solution in 50 mM Tris/HCl, pH 8 containing 20% glycerol (dilution buffer). For the 26 S proteasome stock, the dilution buffer was supplemented with 2 mM ATP, 1 mM MgCl2, and 1 mM DTT (dithiothreitol). The ChT-L peptidase activity was measured as arbitrary intensity units of fluorescence emitted by 7-amino-4-methylcoumarin (AMC) released from the canonical model peptide substrate succinyl-LeuLeuValTyr-methylcoumarin (SucLLVY-MCA; Bachem Bioscience Inc., Philadelphia, Pa.), used at concentration of 100 μM. Free AMC (Sigma-Aldrich, St. Louis, Mo.) was used as the standard. The Rpt5 C-terminal peptide was synthesized (standard solid-phase peptide chemistry) and purified to at least 98% purity by GenScript (Piscataway, N.J.). The Rpt5 peptide and the peptide substrate were dissolved in dimethylsulfoxide (DMSO) and such stock solutions were stored at −20° C. The total concentration of DMSO in final reaction mixtures never exceeded 3% (vol/vol).
The reaction was carried out in 96-well plates, in 100 μL of reaction mixture, for 1 hour at 37° C. In the case of 20 S proteasome, the reaction mixture consisted of 45 mM Tris/HCl, pH 8, 100 mM KCl with premixed 10 μM Rpt5 peptide and 100 μM Suc-LLVY-MCA, to which 200 ng (nearly […]) of proteasome and desired concentration of tested compounds in 1 μL of DMSO were added. […] The reaction rates were calculated from a linear segment of kinetic curves constructed from measurements in 1-minutes intervals (Fluoroskan Ascent plate reader; Thermo Fisher Scientific Inc., Waltham, Mass.). Reaction rates were calculated using a linear fit executed by Slope Analyzer and Enzyme Kinetics applications launched within Origin Pro 2017 (OriginLab). […]

The test system of test [1] is Human multiple myeloma RPMI 8226 cells. Nature of the test: Proliferation of RPMI 8226 cells, live cell count by Trypan Blue exclusion. It is filed as cell-based. To be noted: RPMI 8226, 0.2 μM, 24 hours, read-out: cell proliferation, % of control. As to the method: Human multiple myeloma RPMI 8226 cells were purchased from American Type Culture Collection (ATCC; Manassas, Va.) and cultured according to ATCC specifications. […] The content of live cells was determined by excluding the Trypan Blue-stained cells. The cells were counted with TC20 Automated Cell Counter (Bio-Rad Laboratories, Hercules, Calif.) and EC50 was calculated with Origin Pro 2017 (OriginLab Corporation, Northampton, Mass.). When indicated, the cells were harvested, washed twice in PBS, resuspended in dilution buffer and stored in −80° C. To prepare crude lysates the thawed preparations were vortexed with glass beads and centrifuged for 5 min 5,000×g (4° C.). The supernate was centrifuged for 20 min 14,000×g. The resulting supernate was used as “crude lysate.” SDS-PAGE was carried in 12% acrylamide, Tris-glycine gels from Invitrogen. Chameleon Duo (Li-Cor) and Rainbow RPN800E (GE Healthcare) molecular weight standards were separated on each gel alongside lysates. The proteins were transferred to nitrocellulose membrane in a semi-dry system. The membranes were probed with specific primary antibodies from Life Technologies (S6, PS6) and Li-Cor (COX IV), and then with secondary antibodies from Li-Cor. In each experiment visualization of S6, PS6 and COX IV was performed on the same membrane with Odyssey Infrared Imaging System (Li-Cor).
The effects of compound 3 observed in vitro prompted its influence on the proliferation of cultured cancer cells to be tested, namely the multiple myeloma RPMI 8226 line. […] Such relatively low EC50, as compared to in vitro determined IC50 values for peptidase activities (2-3 μM; FIG. 3A and FIG. 3B) should come to no surprise. […] The in vitro readout of single peptidase activities is a useful and convenient measure of the catalytic prowess of proteasome. However, especially in the case of allosteric regulators, it may not fully reflect the important structural and functional effects.
Referring to FIG. […] The data are averages (±SD) of three-to-five independent experiments. […]

Test [2] has as its target T4, 20 S human housekeeping proteasome (Homo sapiens, UniProt P25787+P25789).
T4 construct: purified from erythrocytes; purchased Enzo Life Sciences, Inc. (Farmingdale, N.Y.); host or cells: human erythrocytes
Nature of the test: ChT-L peptidase activity of 20 S proteasome activated with Rpt5 peptide. It is filed as biochemical. As to conditions: ChT-L, Suc-LLVY-AMC substrate, 20 S activated with Rpt5 peptide; read-out: IC50. As to the method: as §2
The reaction was carried out in 96-well plates, in 100 μL of reaction mixture, for 1 hour at 37° C. In the case of 20 S proteasome, the reaction mixture consisted of 45 mM Tris/HCl, pH 8, 100 mM KCl with premixed 10 μM Rpt5 peptide and 100 μM Suc-LLVY-MCA, to which 200 ng (nearly […]) of proteasome and desired concentration of tested compounds in 1 μL of DMSO were added. To test the activity of 26 S proteasome under conditions challenging coordination of the three pairs of peptidase active centers, a mixture of three canonical substrates specific for the ChT-L (SucLLVY-MCA), trypsin-like (T-L; BocLRR-MCA) and caspase-like (Casp-L; Z-LLE-MCA) was used with each of the substrates at 33.3 μM (100 μM of the total substrate concentration). The reaction mixture in this case consisted of 50 mM Tris/HCl, pH 8, 20 mM NaCl, premixed with the substrates and 2 mM ATP, to which 200 ng (nearly 0.1 nmol) of the 26 S working solution and desired concentration of tested compounds in 0.5 μL of DMSO were added. The reaction rates were calculated from a linear segment of kinetic curves constructed from measurements in 1-minutes intervals (Fluoroskan Ascent plate reader; Thermo Fisher Scientific Inc., Waltham, Mass.). Reaction rates were calculated using a linear fit executed by Slope Analyzer and Enzyme Kinetics applications launched within Origin Pro 2017 (OriginLab). Specific activity of the control 20 S proteasome activated with the Rpt5 peptide was in the range of 1.4 to 2.3 nanomoles of AMC product released by 1 mg of 20 S per second (1.95±0.24; n=18). Specific activity of the control 26 S proteasome challenged with three substrates reached on average 0.28±0.06 nanomoles of AMC product released by 1 mg of the enzyme per second (n=6). For comparison, degradation of the canonical Suc-LLVY-MCA substrate by the control 26 S proteasome preceded with a rate in the range of 0.6-0.8 nanomoles of AMC released per mg of the enzyme per second. The data are presented as mean±SD or as a representative set from at least 3 independent experiments.
The compounds were evaluated using the 20 S human housekeeping proteasome. It was activated with the Rpt5 derived 10-residue peptide that contains the C-terminal HbYX (hydrophobic-Tyr-any AA) motif activating the proteasome in trans and to some extend mimic the activation by the 19 S regulatory particle (Osmulski and Gaczynska (2013) Molecular pharmacology 84: 104-113; Smith et al. (2006) J. Struct. Biol. 156: 72-83; Smith et al. (2007) Mol. Cell 27: 731-744). Proteolytic activity was monitored over time using a fluorogenic peptide substrate specific for the chymotrypsin-like active center (ChT-L, Suc-LLVY-AMC) in the presence of a concentration range of the inhibitors. […]

The target in test [3] is T5, native human 20 S core proteasome (Homo sapiens, UniProt P25787+P25789).
T5 construct: purified from erythrocytes; purchased Enzo Life Sciences, Inc. (Farmingdale, N.Y.); host or cells: human erythrocytes
To be noted: literature; cited from earlier work.

T1 sequence (P62942 whole entry): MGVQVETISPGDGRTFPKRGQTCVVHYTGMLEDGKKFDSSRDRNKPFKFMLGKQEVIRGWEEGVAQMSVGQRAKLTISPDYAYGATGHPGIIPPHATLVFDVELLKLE

As to `COc1cc(CCCOC(=O)[C@@H]2CCCCN2C(=O)C(=O)C2CCCCC2)cc(OC)c1OC` (racemic) [Compound B1], the “suppression of rapamycin inhibition of S6 phosphorylation (FKBP12 binding)” value at FKBP12 was “did not mimic the actions of FK506”. For the same molecule, the “activity of mTOR (phosphorylation of S6)” value on mTOR is given as “neither B1 nor compound 3 affected the activity of mTOR; also recorded: did not inhibit the S6 phosphorylation”. In addition, the 50% inhibitory concentration (IC50) worked out at 4.6 µM on 26 S proteasome and 5.8 µM in test [2]. For the same molecule, in test [1], the activity at 0.2 µM was 60 to 65%.
As to `CCOC(=O)[C@]1(c2ccccc2)N=C(c2ccc(OC)cc2)N(Cc2ccccc2)[C@@H]1c1ccc(NCc2ccccc2)cc1` [TCH-165], the “contribution of closed forms in 20 S particles population” value in test [3] is given as “induced a strong decrease in contribution of the closed forms”.

Broadly, the IC50 is the concentration that inhibits the measured activity by half.
